Measurements as given in patent US20240287003A1, “ETHACRYNIC ACID DERIVATIVES AS INHIBITORS OF MPRO PROTEASE AND SARS-COV-2 REPLICATION” (UNIVERSITE EUROMEDITERRANEENNE DE FES, priority 2021, published 2024).
Where two headings read alike, the source gives them in different places.

What was measured:
Mpro = Mpro (Severe acute respiratory syndrome coronavirus 2, UniProt P0DTD1); conditions: read-out: IC50 (half-maximal inhibitory concentration), Dai et al., Science 2020; cited from earlier work
SARS-COV-2 [1] = conditions: VeroE6 cells, RNA replication by qPCR; Hattori et al. 2021; read-out: EC50, blocking of SARS-COV-2 infection; cited from earlier work
SARS-COV-2 [2] = assay: microbe, parasite or virus in culture; assay type: cell-based; conditions: Vero cells; for reduction in infectivity titres compared with the control: 10 μM; for reduction in the infectivity titres compared with the control: 4 h pre-incubation, MOI 0.04, 48 h; for inhibition at 8 µM / inhibition at 6 µM: Severe acute respiratory syndrome coronavirus 2; for inhibition at 8 µM: read-out: inhibition percentage; for inhibition at 6 µM: read-out: inhibition of viral replication
SARS-COV-2 [3] = conditions: Rut et al., Nat. Chem. Biol. 2021; cited from earlier work
[4] = 6 μM, same experimental conditions

Compound | reduction in infectivity titres compared with the control (SARS-COV-2 [2]; same experimental conditions) [%] | reduction in the infectivity titres compared with the control (SARS-COV-2 [2]; 16.6 μM) [%] | inhibition at 8 µM (SARS-COV-2 [2]; same experimental conditions) [%] | inhibition at 6 µM (SARS-COV-2 [2]; [4]) [%] | further results
O=C[C@H](C[C@@H]1CCNC1=O)NC(=O)[C@H](Cc1cccc(F)c1)NC(=O)c1cc2ccccc2[nH]1 [11b] | – | – | – | – | IC50 (Mpro): 0.04 µM
O=C(Oc1cncc(Cl)c1)c1cccc2c1CCN2 [GRL-1720] | – | – | – | – | EC50 (SARS-COV-2 [1]): 15 ± 4 µM
C=C(CC)C(=O)c1ccc(OCC(=O)Nc2ccc3c(cnn3C)c2)c(Cl)c1Cl [P7, 2-(2,3-dichloro-4-(2-methylenebutanoyl)phenoxy)-N-(1-methyl-1H-indazol-5-yl)acetamide] | 100 | 100 | ~96.7 | – | inhibition of viral replication (SARS-COV-2 [2]; [4]): did not inhibit virus replication at all
C=C(CC)C(=O)c1ccc(OCC(=O)Nc2ccc3[nH]ncc3c2)c(Cl)c1Cl [P26, 2-(2.3-dichloro-4-(2-methylenebutanoyl)phenoxy)-N-(1H-indazol-5-yl)acetamide] | 93.09 | 97.96 | ~52.1 | ~30 | –
C=C(CC)C(=O)c1ccc(OCC(=O)Nc2cccc3cn(C)nc23)c(Cl)c1Cl [P30, 2-(2,3-dichloro-4-(2-methylenebutanoyl)phenoxy)-N-(2-methyl-2H-indazol-7-yl)acetamide] | 100 | – | ~99.7 | ~30 | reduction in the infectivity titres compared with the control (SARS-COV-2 [2]; 5.54 μM): 96.75%
Ac-Abu-dTyr-Leu-Gln-VS [Ac-QSS-VS (15)] | – | – | – | – | EC50 (SARS-COV-2 [3]): 3.7 µM
